Experiments:
Experiment in all cases: relative viability (nuclei count vs DMSO), 5 days (fraction); higher = more cells survive
[1] = compound: CC1=C(N=C(N=C1N)[C@H](CC(=O)N)NC[C@@H](C(=O)N)N)C(=O)N[C@@H]([C@H](C2=CN=CN2)OC3C(C(C(C(O3)CO)O)O)OC4C(C(C(C(O4)CO)O)OC(=O)N)O)C(=O)N[C@H](C)[C@H]([C@H](C)C(=O)N[C@@H]([C@@H](C)O)C(=O)NCCC5=NC(=CS5)C6=NC(=CS6)C(=O)NCCC[S+](C)C)O [Bleomycin] + Nc1nc2[nH]cc(CCc3ccc(C(=O)N[C@@H](CCC(=O)O)C(=O)O)cc3)c2c(=O)[nH]1 [Pemetrexed] (partner 0.2 µM); settings: main component drawn
Method in brief: (§1)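 Lung cancer cell lines in 1536-well plates were dosed by pin tool the day after seeding, either with one drug alone or with a fixed anchor-drug dose plus five library-drug doses (not always all listed) in √10 steps. After 5 days, cells were fixed and their nuclei stained in one step (final 0.05% Triton X-100, 1% formaldehyde, 1 ug/ml Hoechst), then counted on 4× images. Relative viability is the nuclei count in treated wells divided by that in vehicle wells. Values are medians of duplicate plates.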

[2] = compound: COc1cc([C@@H]2c3cc4c(cc3[C@@H](O[C@@H]3O[C@@H]5CO[C@@H](C)O[C@H]5[C@H](O)[C@H]3O)[C@H]3COC(=O)[C@H]23)OCO4)cc(OC)c1O [Etoposide] + Nc1nc2[nH]cc(CCc3ccc(C(=O)N[C@@H](CCC(=O)O)C(=O)O)cc3)c2c(=O)[nH]1 [Pemetrexed] (partner 0.2 µM)
Method in brief: as §1

[3] = compound: COc1cc([C@@H]2c3cc4c(cc3[C@@H](O[C@@H]3O[C@@H]5CO[C@@H](C)O[C@H]5[C@H](O)[C@H]3O)[C@H]3COC(=O)[C@H]23)OCO4)cc(OC)c1O [Etoposide] + CC(=O)Nc1cccc(-n2c(=O)n(C3CC3)c(=O)c3c(Nc4ccc(I)cc4F)n(C)c(=O)c(C)c32)c1 [Trametinib] (partner 0.02 µM)
Method in brief: as §1

[4] = compound: COc1cc([C@@H]2c3cc4c(cc3[C@@H](O[C@@H]3O[C@@H]5CO[C@@H](C)O[C@H]5[C@H](O)[C@H]3O)[C@H]3COC(=O)[C@H]23)OCO4)cc(OC)c1O [Etoposide] + COc1cc2c(Oc3ccc(NC(=O)C4(C(=O)Nc5ccc(F)cc5)CC4)cc3F)ccnc2cc1OCCCN1CCOCC1 [Foretinib] (partner 0.25 µM)
Method in brief: as §1

| Cell Line | relative viability ([1]; first compound 0.01 µM) | relative viability ([1]; first compound 0.03162 µM) | relative viability ([1]; first compound 0.1 µM) | relative viability ([1]; first compound 0.3162 µM) | relative viability ([1]; first compound 1 µM) | relative viability ([2]; first compound 0.01 µM) | relative viability ([2]; first compound 0.03162 µM) | relative viability ([2]; first compound 0.1 µM) | relative viability ([2]; first compound 0.3162 µM) | relative viability ([2]; first compound 1 µM) | relative viability ([3]; first compound 0.01 µM) | relative viability ([3]; first compound 0.03162 µM) | relative viability ([3]; first compound 0.1 µM) | relative viability ([3]; first compound 0.3162 µM) | relative viability ([3]; first compound 1 µM) | relative viability ([4]; first compound 0.01 µM) | relative viability ([4]; first compound 0.03162 µM) | relative viability ([4]; first compound 0.1 µM) | relative viability ([4]; first compound 0.3162 µM) | relative viability ([4]; first compound 1 µM) |
| --- | --- | --- | --- | --- | --- | --- | --- | --- | --- | --- | --- | --- | --- | --- | --- | --- | --- | --- | --- | --- |
| NCI-H522 | 0.844 | 0.815 | 0.85 | 0.49 | 0.321 | 0.896 | 1.22 | 0.784 | 0.877 | 1 | 0.756 | 0.875 | 0.744 | 0.703 | 0.649 | – | – | – | – | – |
| HCC-15 | 0.22 | 0.193 | 0.233 | 0.193 | 0.154 | 0.213 | 0.222 | 0.218 | 0.183 | 0.171 | 0.35 | 0.469 | 0.34 | 0.287 | 0.192 | 1.07 | 1.02 | 1.02 | 0.314 | 0.157 |
| A-427 | 0.875 | 0.917 | 0.868 | 0.432 | 0.288 | 0.999 | 1.06 | 0.778 | 0.607 | 0.305 | 0.695 | 0.812 | 0.621 | 0.47 | 0.296 | 0.947 | 1.08 | 0.853 | 0.424 | 0.284 |
| NCI-H23 | 0.419 | 0.342 | 0.285 | 0.187 | 0.171 | 0.659 | 0.697 | 0.472 | 0.411 | 0.216 | 0.299 | 0.342 | 0.309 | 0.265 | 0.24 | 0.924 | 0.941 | 0.678 | 0.4 | 0.242 |
| NCI-H1734 | 0.392 | 0.406 | 0.383 | 0.342 | 0.273 | 0.391 | 0.49 | 0.408 | 0.415 | 0.328 | 0.655 | 0.74 | 0.499 | 0.461 | 0.452 | 0.776 | 0.923 | 0.701 | 0.602 | 0.369 |
| NCI-H2087 | 0.645 | 0.619 | 0.622 | 0.241 | 0.186 | 0.641 | 0.723 | 0.703 | 0.582 | 0.374 | 0.206 | 0.213 | 0.173 | 0.2 | 0.147 | 1.04 | 1.11 | 0.859 | 0.46 | 0.221 |
| PC-3 [JPC-3] | 1.03 | 1.18 | 0.948 | 0.647 | 0.526 | 1.1 | 1.23 | 1.09 | 0.977 | 0.706 | 0.693 | 0.756 | 0.633 | 0.749 | 0.671 | 0.947 | 1.06 | 1.06 | 0.906 | 0.897 |
| NCI-H1915 | 0.428 | 0.394 | 0.31 | 0.211 | 0.146 | 0.504 | 0.516 | 0.484 | 0.474 | 0.459 | 0.275 | 0.343 | 0.253 | 0.262 | 0.282 | 1.06 | 1.18 | 1.16 | 0.986 | 0.877 |
| NCI-H1666 | 0.72 | 0.659 | 0.804 | 0.578 | 0.673 | 0.832 | 0.866 | 0.923 | 0.631 | 0.563 | 0.818 | 0.89 | 0.809 | 0.526 | 0.508 | 0.962 | 0.919 | 0.695 | 0.42 | 0.461 |
| HCC-366 | 0.169 | 0.207 | 0.178 | 0.0708 | 0.0498 | 0.174 | 0.182 | 0.272 | 0.157 | 0.0669 | 0.338 | 0.36 | 0.249 | 0.0581 | 0.0512 | 0.961 | 0.848 | 0.442 | 0.12 | 0.0524 |
| SK-MES-1 | 0.767 | 0.899 | 0.807 | 0.379 | 0.213 | 0.912 | 1.02 | 0.844 | 0.708 | 0.256 | 0.5 | 0.518 | 0.594 | 0.46 | 0.277 | 0.856 | 1.13 | 0.719 | 0.704 | 0.433 |
| NCI-H727 | – | – | – | – | – | – | – | – | – | – | 0.395 | 0.43 | 0.378 | 0.338 | 0.355 | 0.988 | 0.912 | – | 0.732 | 0.606 |
| RERF-LC-KJ | 0.416 | 0.504 | 0.391 | 0.261 | 0.142 | 0.454 | 0.507 | 0.48 | 0.434 | 0.445 | 0.7 | 0.899 | 0.822 | 0.835 | 0.6 | 0.788 | 0.866 | 0.639 | 0.83 | 0.767 |
| NCI-H1623 | – | – | – | – | – | – | – | – | – | – | – | – | – | – | – | 0.984 | 0.937 | 0.628 | 0.658 | 0.298 |
| Calu-6 | – | – | – | – | – | – | – | – | – | – | – | – | – | – | – | 0.825 | 0.922 | 0.921 | 0.41 | 0.234 |
| LC-2-ad | 0.267 | 0.265 | 0.251 | 0.254 | 0.219 | 0.277 | 0.279 | 0.298 | 0.277 | 0.28 | 0.884 | 0.902 | 0.988 | 0.743 | 0.689 | 0.898 | 0.896 | 0.696 | 0.424 | 0.308 |
| CAL-12T | 0.729 | 0.482 | 0.31 | 0.186 | 0.156 | 1.02 | 1.29 | 1.07 | 0.963 | 0.484 | 0.238 | 0.43 | 0.241 | 0.367 | 0.211 | 1.19 | 1.16 | 1.13 | 0.765 | 0.401 |

— the supplement of paper PMC10307832
